From ChEMBL document CHEMBL1129789, “Dopamine D3 and D4 receptor antagonists: synthesis and structure--activity relationships of (S)-(+)-N-(1-Benzyl-3-pyrrolidinyl)-5-chloro-4- [(cyclopropylcarbonyl) amino]-2-methoxybenzamide (YM-43611) and related compounds” (J Med Chem, 1996)

How the values were obtained:
[1] = target: Histamine H1 receptor (Rattus norvegicus, UniProt P31390); experiment: Compound was tested for the Binding affinity against rat cortical H1 receptor by Radio ligand [3H]pyrilamine binding assay
Histamine H1 receptor, sequence (P31390 whole entry): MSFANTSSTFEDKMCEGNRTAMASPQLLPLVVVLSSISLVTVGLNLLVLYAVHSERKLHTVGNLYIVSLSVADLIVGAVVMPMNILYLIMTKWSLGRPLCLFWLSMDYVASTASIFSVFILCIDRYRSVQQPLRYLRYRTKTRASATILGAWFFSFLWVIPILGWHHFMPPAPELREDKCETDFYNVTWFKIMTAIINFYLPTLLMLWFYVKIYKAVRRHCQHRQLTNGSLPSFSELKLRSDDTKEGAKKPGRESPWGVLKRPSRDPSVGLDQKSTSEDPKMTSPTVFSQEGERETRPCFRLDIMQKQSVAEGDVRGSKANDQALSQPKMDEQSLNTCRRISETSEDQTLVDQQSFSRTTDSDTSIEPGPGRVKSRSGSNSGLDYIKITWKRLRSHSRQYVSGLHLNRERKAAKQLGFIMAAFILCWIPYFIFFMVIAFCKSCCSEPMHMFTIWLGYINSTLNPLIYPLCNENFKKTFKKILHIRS

[2] = target: T1, Muscarinic acetylcholine receptor M2 (Rattus norvegicus, UniProt P10980); experiment: Compound was tested for the Binding affinity against rat heart Muscarinic acetylcholine receptor M2 by Radio ligand [3H]quinuclidinyl binding assay
T1 sequence (P10980 whole entry): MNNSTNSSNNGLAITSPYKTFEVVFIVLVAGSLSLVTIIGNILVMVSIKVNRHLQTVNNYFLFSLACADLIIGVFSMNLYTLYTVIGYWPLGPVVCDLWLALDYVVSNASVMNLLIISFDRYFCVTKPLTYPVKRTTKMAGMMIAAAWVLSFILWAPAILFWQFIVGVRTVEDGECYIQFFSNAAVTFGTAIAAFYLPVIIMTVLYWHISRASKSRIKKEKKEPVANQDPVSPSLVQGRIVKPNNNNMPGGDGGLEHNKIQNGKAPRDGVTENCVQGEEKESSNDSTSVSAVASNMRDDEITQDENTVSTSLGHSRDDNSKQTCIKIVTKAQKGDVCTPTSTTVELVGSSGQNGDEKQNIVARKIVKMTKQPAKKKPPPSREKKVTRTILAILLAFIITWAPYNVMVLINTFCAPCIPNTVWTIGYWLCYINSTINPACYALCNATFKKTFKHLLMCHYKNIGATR

[3] = target: T2, Muscarinic acetylcholine receptor M1 (Rattus norvegicus, UniProt P08482); experiment: Compound was tested for the Binding affinity against rat cortical Muscarinic acetylcholine receptor M1 by Radio ligand [3H]pirenzepine binding assay
T2 sequence (P08482 whole entry): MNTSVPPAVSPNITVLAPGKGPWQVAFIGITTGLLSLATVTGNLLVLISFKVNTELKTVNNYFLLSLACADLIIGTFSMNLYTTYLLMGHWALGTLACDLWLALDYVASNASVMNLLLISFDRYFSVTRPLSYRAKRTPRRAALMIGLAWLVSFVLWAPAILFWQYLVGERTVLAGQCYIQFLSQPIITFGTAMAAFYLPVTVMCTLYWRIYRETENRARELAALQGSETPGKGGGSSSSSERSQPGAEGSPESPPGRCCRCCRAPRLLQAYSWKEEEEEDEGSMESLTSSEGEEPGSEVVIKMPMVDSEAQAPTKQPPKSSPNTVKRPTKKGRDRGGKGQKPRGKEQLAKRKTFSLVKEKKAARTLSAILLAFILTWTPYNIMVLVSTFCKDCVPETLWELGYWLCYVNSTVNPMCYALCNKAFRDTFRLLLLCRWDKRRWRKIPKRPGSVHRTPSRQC

[4] = tested on: Mus musculus; experiment: Compound was tested for inhibition of Apomorphine induced climbing in Mice on subcutaneous administration; format: functional; details: sc
[5] = target: T3, Adrenergic receptor alpha-1 (Rattus norvegicus, UniProt P15823+P23944+P43140); experiment: Compound was tested for the binding affinity against rat cortical Alpha-1 adrenergic receptor by radioligand [3H]prazosin binding assay.; format: protein assay
T3 sequence (P15823 whole entry): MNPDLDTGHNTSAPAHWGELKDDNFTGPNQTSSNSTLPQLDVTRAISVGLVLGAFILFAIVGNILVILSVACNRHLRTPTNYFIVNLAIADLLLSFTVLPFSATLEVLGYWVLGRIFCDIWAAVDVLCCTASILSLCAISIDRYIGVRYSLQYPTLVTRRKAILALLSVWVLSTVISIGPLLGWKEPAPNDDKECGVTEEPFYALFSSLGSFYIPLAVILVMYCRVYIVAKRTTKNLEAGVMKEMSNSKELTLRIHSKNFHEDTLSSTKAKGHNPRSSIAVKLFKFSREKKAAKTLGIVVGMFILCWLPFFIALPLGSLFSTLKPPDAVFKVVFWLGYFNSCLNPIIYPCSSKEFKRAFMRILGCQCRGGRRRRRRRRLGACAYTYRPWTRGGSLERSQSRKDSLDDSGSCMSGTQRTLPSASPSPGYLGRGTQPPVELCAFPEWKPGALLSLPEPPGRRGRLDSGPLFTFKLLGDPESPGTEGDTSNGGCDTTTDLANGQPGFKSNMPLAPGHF
T3 sequence (P23944 whole entry): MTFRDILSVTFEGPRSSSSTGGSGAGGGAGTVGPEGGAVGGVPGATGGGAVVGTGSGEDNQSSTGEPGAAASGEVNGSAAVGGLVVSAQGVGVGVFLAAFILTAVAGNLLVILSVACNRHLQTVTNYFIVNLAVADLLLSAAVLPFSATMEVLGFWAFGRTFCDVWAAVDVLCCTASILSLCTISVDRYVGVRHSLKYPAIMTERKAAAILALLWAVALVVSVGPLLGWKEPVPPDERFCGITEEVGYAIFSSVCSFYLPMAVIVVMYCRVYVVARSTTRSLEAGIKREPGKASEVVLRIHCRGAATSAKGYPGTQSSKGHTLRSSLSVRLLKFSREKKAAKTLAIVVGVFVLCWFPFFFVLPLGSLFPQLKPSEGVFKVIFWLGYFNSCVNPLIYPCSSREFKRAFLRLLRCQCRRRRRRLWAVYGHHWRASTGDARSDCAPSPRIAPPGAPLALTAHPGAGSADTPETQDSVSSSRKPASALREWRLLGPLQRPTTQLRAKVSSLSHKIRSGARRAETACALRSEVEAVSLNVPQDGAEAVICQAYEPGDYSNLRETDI
T3 sequence (P43140 whole entry): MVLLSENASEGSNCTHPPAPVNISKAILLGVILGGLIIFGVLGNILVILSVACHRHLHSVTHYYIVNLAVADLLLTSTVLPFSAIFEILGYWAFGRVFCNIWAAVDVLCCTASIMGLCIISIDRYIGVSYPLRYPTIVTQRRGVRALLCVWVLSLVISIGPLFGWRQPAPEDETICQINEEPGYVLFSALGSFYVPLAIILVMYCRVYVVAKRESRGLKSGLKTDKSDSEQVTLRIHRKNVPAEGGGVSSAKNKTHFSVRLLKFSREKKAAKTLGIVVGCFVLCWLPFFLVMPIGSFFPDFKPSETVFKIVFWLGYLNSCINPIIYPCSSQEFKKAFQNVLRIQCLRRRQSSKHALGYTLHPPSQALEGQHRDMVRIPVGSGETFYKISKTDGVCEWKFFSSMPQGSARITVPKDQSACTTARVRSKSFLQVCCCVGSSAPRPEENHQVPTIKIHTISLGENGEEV

[6] = target: D(1B) dopamine receptor (Homo sapiens, UniProt P21918)
D(1B) dopamine receptor, sequence (P21918 whole entry): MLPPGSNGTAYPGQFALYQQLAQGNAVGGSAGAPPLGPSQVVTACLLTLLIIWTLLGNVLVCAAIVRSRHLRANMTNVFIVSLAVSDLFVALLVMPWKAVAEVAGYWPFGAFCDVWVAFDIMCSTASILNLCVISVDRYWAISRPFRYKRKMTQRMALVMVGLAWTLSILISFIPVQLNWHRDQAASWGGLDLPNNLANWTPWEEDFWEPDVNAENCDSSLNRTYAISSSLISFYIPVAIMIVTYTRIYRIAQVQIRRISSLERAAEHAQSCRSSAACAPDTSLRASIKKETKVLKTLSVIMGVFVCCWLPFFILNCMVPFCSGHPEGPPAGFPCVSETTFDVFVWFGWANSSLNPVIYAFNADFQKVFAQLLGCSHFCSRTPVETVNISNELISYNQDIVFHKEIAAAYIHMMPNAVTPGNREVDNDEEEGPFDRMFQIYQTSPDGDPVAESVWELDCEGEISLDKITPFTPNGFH

[7] = target: Adrenergic receptor beta (Rattus norvegicus, UniProt P18090+P10608+P26255); experiment: Compound was tested for the Binding affinity against rat cortical Beta adrenergic receptor by Radio ligand [3H]dihydroalprenolol binding assay.; format: protein assay

COc1cc(NC(=O)C2CC2)c(Cl)cc1C(=O)N[C@H]1CCN(Cc2ccccc2)C1
Ki [1]: > 10 µM | Ki [2]: 7.3 µM | Ki [3]: 5.4 µM | ED50 [4]: 0.32 mg/kg | Ki [5]: 5.3 µM | Ki [6]: > 10 µM | Ki [7]: > 10 µM
